The text below walks through data of patent US9169481B2, “Cell-mediated directed evolution” (priority 2006, dated 2015).

The target of data set [1] is Erwinia carotovora cellulase CelV (Cellulase V; = CelT, Cellulase T), catalytic domain, parent (Pectobacterium atrosepticum, UniProt Q6D5R0). Put plainly: Steady-state kinetics of pNPC hydrolysis (release of p-nitrophenol), CelT = CelV. The format is biochemical. As to conditions: pH 7, room temperature. An excerpt:
(§1) The DNA shuffling vector, pPPY2148, was constructed by digesting p425Met25 (ATCC) with HindIII and PstI and introducing an 800 bp stuffer flanked by SfiI sites. The catalytic domain of four family 5 cellulases with 77-90% sequence identity, E. carotovora CelN (Olsen et al., 1996, Biotechnology (N Y) 14:71-76), CelVI (Mae and Palva, 1995, Mol Gen Genet. 247:17-26), CelA (Park et al., 1997, Biochem Biophys Res Commun. 241:636-641) and CelT (cloned from the E. carotovora subs. atroceptica (Bell et al., 2004, Proc Natl Acad Sci USA. 101: 11105-11110) genomic DNA) were cloned into pPY2148 to create plasmids pPPY2230, pPPY2232, pPPY2234 and pPPY2236 respectively. A ^6His-tag was added at the C-terminus of the four parent genes to facilitate protein purification after selection. The catalytic domain of these cellulases was identified by sequence comparison with the catalytic domain of Bacillus agaradhaerens Cel5A, which has 68% sequence identity at the amino acid level with the parent genes and which three dimensional X-ray structure is available (Davies et al., 1998, Biochemistry 37: 1926-1932; Davies et al., 1998, Biochemistry 37: 11707-11713; Varrot et al., 2000, J Mol Biol. 297: 819-828; Varrot et al., 2001, Acta Crystallogr D Biol Crystallogr. 57: 1739-1742; Varrot and Davies, 2003, Acta Crystallogr D Biol Crystallogr. 59: 447-452). The cellulase genes were shuffled using standard procedures with slight variations (Zhao and Arnold, 1997, Nucleic Acids Res. 25: 1307-1308). To introduce the shuffled product into the shuffling vector via homologous recombination, 30 bp homology to the shuffling vector was introduced at the 5′ and 3′ end of the shuffled product by carrying an extra amplification step of the shuffling product primers VC1658-VC1659. 7.5 ng of shuffled product (1.4E11 shuffled product molecules assuming each base pair is 330M and the shuffled product was 1000 bp) was used as a template in a 100 ul amplification reaction. The product was purified in a 2% agarose gel.
(§2) Ten colonies selected on day 8 and 9 were characterized in vitro using para-nitrophenyl cellobioside (pNPC) as a substrate. The cellulase chimeras were amplified from the shuffling vector using primers PPY100 and PPY103 and subcloned into the T7-expression vectors pAED4 between NdeI and HindIII sites. The cellulase chimeras were over expressed in E. coli and purified using a Nickel affinity column. Protein concentration was determined using the extinction coefficient of the parent genes ε=76890 and absorption at A280. To determine the kinetic constants for the hydrolysis of pNPC, the cellulase chimeras were incubated at room temperature in phosphate buffer (25 mM K2HPO4, 100 mM NaCl, pH=7) containing various concentrations of the substrate, and the release of p-nitrophenol (εpH=7=4000M^−1 cm^−1, A420) was recorded continuously in a SpectraMax Plus 384 spectrophotometer.
(§3) The three starting cellulases and the improved cellulase variants were subcloned into the E. coli T7 vector, pAED4, between NdeI and HindIII sites to give vectors pPPY2256 (CelN), pPPY2258 (CelA), pPPY2257 (CelV), pPPY2291 (Cel—3.7), and pPPY2292 (Cel—5.7). The cellulases were purified using Quick spin Ni-NTA affinity column (Qiagen). Protein concentration was determined using the extinction coefficient of the starting genes (ε=76670) and absorption at 280 nm. […] The release of p-nitrophenol (εpH 7=4000M−1 cm−1, A420) was recorded continuously in a SpectraMax Plus 384 spectrophotometer at 420 nm.

The test system of data set [2] is Erwinia carotovora cellulase CelA (Cellulase A), catalytic domain, parent. Put plainly: Steady-state kinetics of pNPC hydrolysis (release of p-nitrophenol), CelA. It is filed as biochemical. As to conditions: pH 7, room temperature.
Excerpt: as §1, with “To introduce the shuffled product into the shuffling vector via homologous recombination, 30 bp homology to the shuffling vector was introduced at the 5′ and 3′ end of the shuffled product by carrying an extra amplification step of the shuffling product primers VC1658-VC1659. 7.5 ng of shuffled product (1.4E11 shuffled product molecules assuming each base pair is 330M and the shuffled product was 1000 bp) was used as a template in a 100 ul amplification reaction. The product was purified in a 2% agarose gel.” left out
as §2, with “The cellulase chimeras were amplified from the shuffling vector using primers PPY100 and PPY103 and subcloned into the T7-expression vectors pAED4 between NdeI and HindIII sites. The cellulase chimeras were over expressed in E. coli and purified using a Nickel affinity column.” left out
The three starting cellulases and the improved cellulase variants were subcloned into the E. coli T7 vector, pAED4, between NdeI and HindIII sites to give vectors pPPY2256 (CelN), pPPY2258 (CelA), pPPY2257 (CelV), pPPY2291 (Cel—3.7), and pPPY2292 (Cel—5.7). […] Protein concentration was determined using the extinction coefficient of the starting genes (ε=76670) and absorption at 280 nm. […] The release of p-nitrophenol (εpH 7=4000M−1 cm−1, A420) was recorded continuously in a SpectraMax Plus 384 spectrophotometer at 420 nm.

In data set [3] the test system is Erwinia carotovora shuffled cellulase variant Cellulase 7, SEQ ID NO:14. The experiment in a line: Steady-state kinetics of pNPC hydrolysis, Cellulase 7. The format is biochemical. As to conditions: pH 7, room temperature. As to the method: as §2
(§4) The three starting cellulases and the improved cellulase variants were subcloned into the E. coli T7 vector, pAED4, between NdeI and HindIII sites to give vectors pPPY2256 (CelN), pPPY2258 (CelA), pPPY2257 (CelV), pPPY2291 (Cel—3.7), and pPPY2292 (Cel—5.7). The cellulases were purified using Quick spin Ni-NTA affinity column (Qiagen). Protein concentration was determined using the extinction coefficient of the starting genes (ε=76670) and absorption at 280 nm. To determine the kinetic constants for the hydrolysis of pNPC, the cellulase chimeras were incubated at room temperature in phosphate buffer (25 mM K2HPO4, 100 mM NaCl, pH 7) containing seven different concentrations of pNPC ranging from 12 mM to 0.185 mM. The release of p-nitrophenol (εpH 7=4000M−1 cm−1, A420) was recorded continuously in a SpectraMax Plus 384 spectrophotometer at 420 nm.

Data set [4] has as its system Erwinia carotovora CelN/CelA/CelV shuffled variant Cellulase 1 (CELLVAR2, Colony 2, Cel_3.7), vs CelN: S126N, D157E, Q186L, L193M, V2541, T288A, E295A, G30A …. Put plainly: Steady-state kinetics of pNPC hydrolysis, Cellulase 1. The format is biochemical. Here is the method:
as §2, §4
Cel—3.7 (cellulase 1) contains nine crossovers. […] A homology model of Cel—3.7 (cellulase 1) was made, utilizing the B. agaradherans Cel5A structure (SwissProt: O85465; PDB: 1h5v) with the inhibitor methyl 4,4II,4III,4IV-tetrathio-α-cellopentoside bound to the active site, using Swiss-Model (FIG. 28A). The eight mutations accessible with the homology model map onto the surface of the enzyme, away from the extended carbohydrate binding site.

In data set [5] the test system is Erwinia carotovora shuffled cellulase variant Cellulase 4 (CELLVAR1, Colony 1), SEQ ID NO:3. Put plainly: Steady-state kinetics of pNPC hydrolysis, Cellulase 4. It is filed as biochemical. As to conditions: pH 7, room temperature. Here is the method:
as §2, §4

The subject of data set [6] is Erwinia carotovora shuffled cellulase variant Cellulase 5, SEQ ID NO:10. Put plainly: Steady-state kinetics of pNPC hydrolysis, Cellulase 5. It is filed as biochemical. As to conditions: pH 7, room temperature. Here is the method: as §2, §4
Data set [7] has as its system Erwinia carotovora shuffled cellulase variant Cellulase 6, SEQ ID NO:12. Put plainly: Steady-state kinetics of pNPC hydrolysis, Cellulase 6. The format is biochemical. As to conditions: pH 7, room temperature. As to the method: as §2, §4
For data set [8], the system named is Erwinia carotovora shuffled cellulase variant Cellulase 8, SEQ ID NO:16. The experiment in a line: Steady-state kinetics of pNPC hydrolysis, Cellulase 8. The format is biochemical. As to conditions: pH 7, room temperature. Here is the method:
as §2, §4

The target in data set [9] is Erwinia carotovora cellulase CelN (Cellulase N), catalytic domain, parent (Pectobacterium atrosepticum, UniProt Q59394). Put plainly: Steady-state kinetics of pNPC hydrolysis (release of p-nitrophenol), CelN. The format is biochemical. As to conditions: pH 7, room temperature.
Excerpt: as §1, §2, §3

Data set [10] concerns Erwinia carotovora CelN/CelA/CelV shuffled variant Cellulase 2 (Cel_5.7), vs CelN: A86V, S126N, E154D, T172S, C208R, T262S, A267T, A272T; SEQ ID NO:6. Put plainly: Steady-state kinetics of pNPC hydrolysis, Cellulase 2. It is filed as biochemical. Here is the method:
as §2, §4
A homology model of Cel—5.7 (cellulase 2) was made, again utilizing the same structure of B. agaradherans Cel5A, using Swiss-Model (FIG. 28b)^38. Four mutations are in the C-terminus loops that compose the extended carbohydrate binding site, while the other 4 map onto the surface of the enzyme. Although mutation T172S is located in C-terminus loop 5, it is 15 Å away from closest hexose ring in the substrate inhibitor. Mutations T262S, A267T, A272T are located in C-terminus loop 8. The mutation T262S is the closest to the substrate inhibitor, 6 Å away from the 6′-OH of the hexose ring in the −3 subsite. […] This mutation is located at the N-terminus of the barrel and points towards the solvent.

Data set [11] relates to Erwinia carotovora shuffled cellulase variant Cellulase 3, SEQ ID NO:8. The experiment in a line: Steady-state kinetics of pNPC hydrolysis, Cellulase 3. It is filed as biochemical. As to conditions: pH 7, room temperature. Here is the method: as §2, §4
The test system of data set [12] is D-2-deoxyribose-5-phosphate aldolase (DERA) variant. As to conditions: directed evolution with in vitro screen; DeSantis et al., 2003; cited from earlier work.
The test system of data set [13] is reverse yeast three-hybrid strain. Put plainly: 5-FOA effect on growth of reverse yeast three-hybrid strain. It is filed as cell-based, Saccharomyces cerevisiae. As to conditions: 5-FOA concentrations beyond 0.3%. From the text: First, we recombined the URA3 gene at the ura3-52 locus of our chemical complementation yeast strain, FY251, and selected for Ura^+ phenotype on medium lacking uracil to create VC2169. Next, the vectors carrying the DBD-DHFR and GR-B42 constructs were introduced into VC2169 and selected on plates lacking uracil, histidine, and tryptophan to create VC2291. Finally, we introduced the LexA(4op) and the Spo13 promoter upstream of the URA3 gene and selected for Ura^− phenotype on medium containing 5-FOA. This selection provided numerous reverse three-hybrid colonies. Three colonies were used to optimize the reverse yeast three-hybrid system for the highest fold increase in activation in the presence of 10 μM Mtx-Dex by measuring the difference between cell survival and cell death. Mtx-Dex was used, instead of Mtx-Cel-Dex, for the optimization of the system as the cellulose linker is not necessary for the system's functioning, and the synthesis of Mtx-Dex is simpler than that of Mtx-Cel-Dex. The system was optimized by varying the level of galactose, which affects the concentration of DBD-DHFR and AD-GR in the system, and 5-FOA, which controls the toxicity level of the reporter gene. Galactose levels ranging from 1 to 2% and 5-FOA concentrations ranging from 0.1 to 0.5% were tested simultaneously. […]

In data set [14] the target is lipocalin (de novo selected). As to conditions: Beste et al., 1999; read-out: dissociation constant; cited from earlier work.

Each structure is given as a SMILES string. Several values for one entry are separate records, joined by “and”; a condition that tells them apart may be missing. Identical values can stand only once.

Erwinia carotovora cellulase CelN (Cellulase N), catalytic domain, parent, sequence (Q59394 32-444): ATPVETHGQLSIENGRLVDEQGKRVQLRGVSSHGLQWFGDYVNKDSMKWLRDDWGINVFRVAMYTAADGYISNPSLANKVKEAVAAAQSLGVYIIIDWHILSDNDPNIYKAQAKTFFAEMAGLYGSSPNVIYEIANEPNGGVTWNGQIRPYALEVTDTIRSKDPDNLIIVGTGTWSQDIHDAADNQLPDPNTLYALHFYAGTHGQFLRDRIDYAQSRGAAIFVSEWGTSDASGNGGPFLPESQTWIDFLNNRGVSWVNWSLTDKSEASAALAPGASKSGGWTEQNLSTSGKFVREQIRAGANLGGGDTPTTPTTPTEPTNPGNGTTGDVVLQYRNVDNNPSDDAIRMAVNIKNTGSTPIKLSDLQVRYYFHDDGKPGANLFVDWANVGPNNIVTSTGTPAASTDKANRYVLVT
Erwinia carotovora cellulase CelV (Cellulase V; = CelT, Cellulase T), catalytic domain, parent, sequence (Q6D5R0 entry or part of it): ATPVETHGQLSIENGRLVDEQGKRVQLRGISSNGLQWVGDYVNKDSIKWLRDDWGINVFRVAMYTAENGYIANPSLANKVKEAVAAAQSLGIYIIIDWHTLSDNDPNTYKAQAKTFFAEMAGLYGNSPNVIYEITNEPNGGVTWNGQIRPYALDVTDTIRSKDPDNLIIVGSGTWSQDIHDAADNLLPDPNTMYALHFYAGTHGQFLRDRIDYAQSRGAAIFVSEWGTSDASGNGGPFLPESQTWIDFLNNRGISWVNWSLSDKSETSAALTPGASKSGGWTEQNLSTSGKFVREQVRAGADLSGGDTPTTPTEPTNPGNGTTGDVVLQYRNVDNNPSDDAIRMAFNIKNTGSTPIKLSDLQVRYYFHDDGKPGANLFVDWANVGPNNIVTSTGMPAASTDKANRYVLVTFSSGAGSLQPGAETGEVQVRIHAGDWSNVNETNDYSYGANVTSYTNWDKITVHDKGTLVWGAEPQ

Regarding `O=[N+]([O-])c1ccc(O[C@@H]2O[C@H](CO)[C@@H](O[C@@H]3O[C@H](CO)[C@@H](O)[C@H](O)[C@H]3O)[C@H](O)[C@H]2O)cc1` [pNPC, p-nitrophenyl cellobioside], the Kcat worked out at 1100 s⁻¹ in data set [1]; 1400 s⁻¹ in [2]; 110 s⁻¹ in [3]; 4300 s⁻¹ in data set [4] (pH 7, room temperature); 16000 s⁻¹ in data set [5]; 6700 s⁻¹ in data set [6]. For the same compound, the Kcat turned out to be 210 s⁻¹ in data set [7]; 840 s⁻¹ in data set [8]; 1300 s⁻¹ in [9]; 5200 s⁻¹ in data set [10] (pH 7, room temperature); 5000 s⁻¹ in data set [11]. In addition, the Kcat/Km was 240000 M⁻¹ s⁻¹ in data set [1]; 192000 M⁻¹ s⁻¹ in data set [2]; 8120 M⁻¹ s⁻¹ and 8100 M⁻¹ s⁻¹ in data set [3]; 1.4 × 10^6 sec^−1M^−1 and 1.4 × 10^6 M^−1sec^−1 in [4] (pH 7, room temperature); 1.1e+07 M⁻¹ s⁻¹ in [5]; 4.5e+06 M⁻¹ s⁻¹ in data set [6]. Besides, the Kcat/Km is 220000 M⁻¹ s⁻¹ in [7]; 200000 M⁻¹ s⁻¹ in data set [8]; 370000 M⁻¹ s⁻¹ in data set [9]; 2.1 × 10^6 sec^−1M^−1 and 2.1 × 10^6 M^−1sec^−1 in [10] (pH 7, room temperature); 1.4 × 10^6 sec^−1M^−1 and 1.4 × 10^6 M^−1sec^−1 in data set [11]. In addition, the Kcat/KM in data set [2] was found to be 193000 M⁻¹ s⁻¹; in data set [4] (pH 7, room temperature), 1.3e+06 M⁻¹ s⁻¹; in data set [5], 1.2e+07 M⁻¹ s⁻¹. For the same compound, the Km (as a rule, the substrate concentration at which the rate is half of its maximum) in data set [2] is 7200 µM; in [3], 14000 µM; in data set [4] (pH 7, room temperature), 3200 µM; in [5] it was 1300 µM; in data set [6], 1500 µM; in [7] it was 960 µM and 1000 µM. Besides, the Km is 4300 µM in [8]; 2500 µM and 2470 µM in data set [10] (pH 7, room temperature); 3600 µM in data set [11]. Further, the “increase in catalytic efficiency over the best starting cellulase, CelN” value is 3.6 fold and 3.7 fold in data set [4] (relative to CelN); 5.3 fold and 5.7 fold in [10] (relative to CelN).
As to `O=C[C@H](O)CO` [D-glyceraldehyde], the “improvement in catalytic efficiency” value in [12] is 2.5 fold.
Regarding `O=C(O)c1[nH]c(=O)[nH]c(=O)c1F` [5-FOA, 5-fluoroorotic acid], in [13], the “effect on cell growth” value is reported as “detrimental for cell growth”.
For `O=C1OC2(c3ccc(O)cc3Oc3cc(O)ccc32)c2ccccc21` [fluorescein], in [14], the Kd was 65 nM.
